Source: ChEMBL document CHEMBL4011640, “Identification and Structure-Activity Relationships of Novel Compounds that Potentiate the Activities of Antibiotics in Escherichia coli” (J Med Chem, 2017)
Values after ≈ are worked out from the molar mass of the structure shown. Active and inactive are the calls of the source. No cut-off for these calls is given here.

Experiments:
[1] = tested on: Escherichia coli BW25113; assay: Inhibition of AcrA efflux pump in Escherichia coli BW25113 assessed as compound concentration required for potentiation of novobiocin-induced antibacterial activity by 4 fold by checkerboard assay
[2] = tested on: Escherichia coli; assay: Disruption of transmembrane potential in Escherichia coli live cells harboring pores in outer membrane at 10 uM by DiSC3(5) probe-based fluorescence assay; format: functional
[3] = tested on: Escherichia coli; assay: Antimicrobial activity against Escherichia coli BW25113 after 24 hrs by two-fold broth microdilution assay; format: functional; conditions: BW25113, 24 h
[4] = tested on: Escherichia coli; assay: Antimicrobial activity against Escherichia coli harboring pores in outer membrane after 24 hrs by two-fold broth microdilution assay; format: functional
[5] = tested on: Escherichia coli; assay: Antimicrobial activity against Escherichia coli harboring AcrAB-TolC deletion mutant after 24 hrs by two-fold broth microdilution assay; format: functional
[6] = tested on: Escherichia coli; assay: Antimicrobial activity against AcrAB-TolC knocked out Escherichia coli GD102 harboring […] pores in the outer membrane after 24 hrs by two-fold broth microdilution assay; format: functional; conditions: GD102, 24 h
[7] = tested on: Escherichia coli; assay: Binding affinity to Escherichia coli AG100 His-tagged AcrA at 25 uM by SPR assay
[8] = tested on: Escherichia coli; assay: Inhibition of AcrA in Escherichia coli assessed as increase in HT dye uptake at 25 uM measured up to 600 secs by fluorescence method
[9] = Ratio of MIC for wild type Escherichia coli BW25113 to MIC for Escherichia coli harboring […] pores in the outer membrane; format: functional, cell membranes
[10] = tested on: Escherichia coli; assay: Ratio of MIC for wild type Escherichia coli harboring […] pores in the outer membrane to MIC for AcrAB-TolC knocked out Escherichia coli GD102 harboring […] pores in the outer membrane; format: functional
[11] = tested on: Escherichia coli; assay: Ratio of MIC for wild type Escherichia coli harboring […] pores in the outer membrane to MIC for wild type Escherichia coli harboring […] pores in the outer membrane in presence of erythromycin; format: functional
[12] = tested on: Escherichia coli; assay: Inhibition of AcrA in Escherichia coli assessed as HT dye uptake at 25 uM measured up to 600 secs by fluorescence method relative to control
[13] = tested on: Escherichia coli; assay: Ratio of MIC for wild type Escherichia coli harboring […] pores in the outer membrane to MIC for wild type Escherichia coli harboring […] pores in the outer membrane in presence of novobiocin; format: functional
[14] = tested on: Escherichia coli; assay: Binding affinity to Escherichia coli AG100 His-tagged AcrA at 50 uM by SPR assay
[15] = tested on: Escherichia coli; assay: Ratio of MIC for wild type Escherichia coli harboring AcrAB-TolC deletion mutant to MIC for AcrAB-TolC knocked out Escherichia coli GD102 harboring […] pores in the outer membrane; format: functional
[16] = tested on: Escherichia coli BW25113; assay: Inhibition of AcrA efflux pump in Escherichia coli BW25113 assessed as compound concentration required for potentiation of novobiocin-induced antibacterial activity by 2 fold by checkerboard assay
[17] = tested on: Escherichia coli; assay: Inhibition of AcrA in Escherichia coli assessed as increase in HT dye uptake at 25 uM measured up to 600 secs by fluorescence method relative to control
[18] = tested on: HEK293; assay: Cytotoxicity against HEK293 cells assessed as reduction in cell viability after overnight incubation by Cell Titer Glo assay; format: cell-based; conditions: Homo sapiens

O=C(/C=C/c1ccccc1C(F)(F)F)Nc1ccc(C2=NCCN2)cc1
Activity [1]: 50 µM

O=C(Nc1ccc(-c2ncc[nH]2)cc1)c1ccc(C(=O)Nc2ccc(-c3ncc[nH]3)cc2)c(Cl)c1
Activity [1]: > 400 µM

CC(C)[C@@H]1NC(=O)[C@H](C)OC(=O)[C@@H](C(C)C)NC(=O)[C@@H](C(C)C)OC(=O)[C@H](C(C)C)NC(=O)[C@H](C)OC(=O)[C@@H](C(C)C)NC(=O)[C@@H](C(C)C)OC(=O)[C@H](C(C)C)NC(=O)[C@H](C)OC(=O)[C@@H](C(C)C)NC(=O)[C@@H](C(C)C)OC1=O
Activity ([2]; TDE = time-dependent effect): Tde

NCc1ccc(NC(=O)c2ccc(C(=O)Nc3ccc(CN)cc3)cc2)cc1
Activity [1]: 50 µM

Cn1cnnc1-c1ccc(NC(=O)c2ccc(C(=O)Nc3ccc(-c4nncn4C)cc3)c(Cl)c2)cc1
Activity [1]: > 400 µM

O=C(Nc1ccc(C2=NCCN2)cc1)c1ccc(Cl)cc1
Activity [1]: 200 µM

COc1ccc(/C=C/C(=O)Nc2ccc(C3=NCCN3)cc2)cc1
Activity [1]: 100 µM

Nc1ccc(C2=NCCN2C(=O)c2ccc(C(=O)N3CCN=C3c3ccc(N)cc3)c(Cl)c2)cc1
Activity [1]: 50 µM

Cc1cc(C(=O)Nc2ccc(C3=NCCN3)cc2)ccc1C(=O)Nc1ccc(C2=NCCN2)cc1
Activity [1]: 25 µM

N#Cc1ccc(NC(=O)c2ccc(C(=O)Nc3ccc(C#N)cc3)c(Cl)c2)cc1
Activity [1]: > 400 µM

O=C(Nc1ccc(C2=NCCN2)cc1)c1ccc(C(=O)Nc2ccc(C3=NCCN3)cc2)c([N+](=O)[O-])c1
Activity [1]: 25 µM

O=C(Nc1ccc(C2=NCCN2)cc1)c1ccc(C(=O)Nc2ccc(C3=NCCN3)cc2)c(Cl)c1
MIC [3]: > 200 µM
MIC [4]: 100 µM (≈ 48.7 µg/mL)
MIC [5]: 25 µM (≈ 12.2 µg/mL)
MIC [6]: 12.5 µM (≈ 6.09 µg/mL)
Activity [1]: 25 µM
Activity [7]: Active
Activity [8]: Active
Activity [2]: inactive
Ratio [9]: 4
Ratio [10]: 8
Ratio [11]: 8
fold change (FC) [12]: 3.2
Ratio [13]: 16
Activity [14]: Active

O=C(Nc1ccc(C2=NCCN2)cc1)c1cccc(C(=O)Nc2ccc(C3=NCCN3)cc2)c1
Activity [1]: 200 µM

O=C(CCc1ccccc1)Nc1ccc(C2=NCCN2)cc1
Activity [1]: > 100 µM

O=C(Nc1ccc(S(=O)(=O)O)cc1)c1ccc(C(=O)Nc2ccc(S(=O)(=O)O)cc2)cc1
Activity [1]: > 100 µM

O=C(Nc1ccc(NC(=O)c2ccc(C3=NCCN3)cc2)cc1)c1ccc(C2=NCCN2)cc1
MIC [3]: 50 µM (≈ 22.6 µg/mL)
MIC [4]: 50 µM (≈ 22.6 µg/mL)
MIC [5]: 25 µM (≈ 11.3 µg/mL)
MIC [6]: 12.5 µM (≈ 5.66 µg/mL)
Activity [1]: 12.5 µM
Activity [7]: Active
Activity [8]: inactive
Activity [14]: Active

O=C(/C=C/c1ccccc1Br)Nc1ccc(C2=NCCN2)cc1
MIC [3]: > 400 µM
MIC [4]: > 400 µM
MIC [5]: 200 µM (≈ 74.1 µg/mL)
MIC [6]: 100 µM (≈ 37 µg/mL)
Activity [1]: 50 µM
Activity [7]: Active
Activity [8]: Active
Ratio [9]: 1
Ratio [10]: 8
Ratio [11]: 32
fold change (FC) [12]: 11.6
Ratio [13]: 32

O=C(Nc1ccc(C2=NCCN2)cc1)[C@H]1CC[C@H](C(=O)Nc2ccc(C3=NCCN3)cc2)CC1
MIC [3]: 50 µM (≈ 22.9 µg/mL)
MIC [4]: 25 µM (≈ 11.5 µg/mL)
MIC [5]: 12.5 µM (≈ 5.73 µg/mL)
MIC [6]: 6.25 µM (≈ 2.87 µg/mL)
Activity [1]: > 400 µM
Activity [7]: inactive
Activity [8]: Active
Ratio [9]: 2
Ratio [15]: 2
Activity [14]: inactive

CC(C)(C)c1ccc(/C=C/C(=O)Nc2ccc(C3=NCCN3)cc2)cc1
MIC [3]: 25 µM (≈ 8.69 µg/mL)
MIC [4]: 25 µM (≈ 8.69 µg/mL)
MIC [5]: 12.5 µM (≈ 4.34 µg/mL)
MIC [6]: 12.5 µM (≈ 4.34 µg/mL)
Activity [7]: Active
Activity [8]: Active
Ratio [9]: 1
Ratio [10]: 2
Ratio [11]: 2
fold change (FC) [12]: 2.6
Ratio [13]: 2
Activity [16]: 12.5 µM
fold change (FC) [17]: 2.6

O=C(/C=C/c1ccccc1Cl)Nc1ccc(C2=NCCN2)cc1
MIC [3]: > 200 µM
MIC [4]: 400 µM (≈ 130 µg/mL)
MIC [5]: 200 µM (≈ 65.2 µg/mL)
MIC [6]: 100 µM (≈ 32.6 µg/mL)
Activity [1]: 25 µM
Activity [7]: Active
Activity [8]: Active
Activity [2]: inactive
IC50 [18]: 10.5 µM
Ratio [9]: 1
Ratio [10]: 4
Ratio [11]: 8
fold change (FC) [12]: 9.7
Ratio [13]: 32

O=C(Nc1ccc(C2=NCCN2)cc1)c1ccc(C(=O)Nc2ccc(C3=NCCN3)cc2)c(F)c1
Activity [1]: 100 µM

O=C(Nc1ccc(C2=NCCN2)cc1)c1ccc(C(=O)Nc2ccc(C3=NCCN3)cc2)cc1
Activity [1]: 50 µM

N#Cc1cccc(NC(=O)c2ccc(C(=O)Nc3cccc(C#N)c3)c(Cl)c2)c1
Activity [1]: > 400 µM

CC(C)c1ccc(/C=C/C(=O)Nc2ccc(C3=NCCN3)cc2)cc1
MIC [3]: 100 µM (≈ 33.3 µg/mL)
MIC [4]: 50 µM (≈ 16.7 µg/mL)
MIC [5]: 25 µM (≈ 8.34 µg/mL)
MIC [6]: 25 µM (≈ 8.34 µg/mL)
Activity [1]: 50 µM
Activity [7]: Active
Activity [8]: Active
Activity [2]: inactive
IC50 [18]: > 100 µM
Ratio [9]: 2
Ratio [10]: 2
Ratio [11]: 8
fold change (FC) [12]: 6.3
Ratio [13]: 8

O=C(Nc1ccc(C2=NCCN2)cc1)c1ccc2cc(Br)ccc2c1
MIC [3]: > 400 µM
MIC [4]: 200 µM (≈ 78.9 µg/mL)
MIC [5]: 25 µM (≈ 9.86 µg/mL)
MIC [6]: 12.5 µM (≈ 4.93 µg/mL)
Activity [1]: 25 µM
Activity [7]: Active
Activity [8]: Active
Ratio [9]: 4
Ratio [10]: 16
Ratio [11]: 16
fold change (FC) [12]: 16
Ratio [13]: 16
fold change (FC) [17]: 1.6

O=C(CCC(=O)Nc1ccc(C2=NCCN2)cc1)Nc1ccc(C2=NCCN2)cc1
Activity [1]: > 400 µM

O=C(/C=C/c1cccc(Cl)c1)Nc1ccc(C2=NCCN2)cc1
Activity [1]: 50 µM

O=C(Nc1ccc(CO)cc1)c1ccc(C(=O)Nc2ccc(CO)cc2)c(Cl)c1
Activity [1]: > 200 µM

O=C(Nc1ccc(C2=NCCN2)cc1)c1ccc2c(c1)CN(Cc1ccccc1)C2=O
Activity [1]: > 200 µM

O=C(Nc1cccc(C2=NCCN2)c1)c1ccc(C(=O)Nc2cccc(C3=NCCN3)c2)cc1
MIC [3]: 200 µM (≈ 90.5 µg/mL)
MIC [4]: 100 µM (≈ 45.3 µg/mL)
MIC [5]: 50 µM (≈ 22.6 µg/mL)
MIC [6]: 25 µM (≈ 11.3 µg/mL)
Activity [1]: 50 µM
Activity [7]: Active
Activity [8]: Active
Ratio [9]: 2
Ratio [10]: 4
Ratio [11]: 4
fold change (FC) [12]: 1.7
Ratio [13]: 4

O=C(Nc1ccc(C2=NCCN2)cc1)c1ccc(C(=O)Nc2ccc(C3=NCCN3)cc2)c(Br)c1
Activity [1]: 50 µM

O=C(Cc1ccc(Cl)cc1)Nc1ccc(C2=NCCN2)cc1
Activity [1]: > 100 µM

COC(=O)c1ccc(C(=O)Nc2ccc(C3=NCCN3)cc2)cc1
Activity [1]: > 400 µM

O=C(NCc1ccccc1)c1ccc(C(=O)Nc2ccc(C3=NCCN3)cc2)cc1
Activity [1]: > 200 µM

O=C(/C=C/c1ccc(Br)cc1)Nc1ccc(C2=NCCN2)cc1
Activity [1]: 100 µM

O=C(/C=C/c1ccccc1)Nc1ccc(C2=NCCN2)cc1
Activity [1]: 200 µM

O=C(/C=C/c1ccc(Cl)cc1)Nc1ccc(C2=NCCN2)cc1
MIC [3]: 200 µM (≈ 65.2 µg/mL)
MIC [4]: 100 µM (≈ 32.6 µg/mL)
MIC [5]: 50 µM (≈ 16.3 µg/mL)
MIC [6]: 25 µM (≈ 8.14 µg/mL)
Activity [1]: 25 µM
Activity [8]: Active
Ratio [9]: 2
Ratio [10]: 4
Ratio [11]: 4
fold change (FC) [12]: 2.5
Ratio [13]: 8
